Source: article PMC11869560, “Anticancer and cancer preventive activities of shogaol and curcumin from Zingiberaceae family plants in KG-1a leukemic stem cells” (BMC Complementary Medicine and Therapies, 2025)
≈ marks a conversion by molar mass, not a printed value. Where two headings read alike, the source gives them in different places.

Experiments:
[1] = test system: KG-1a cells; assay: MTT cytotoxicity assay in KG-1a cells; format: cell-based, human; conditions: for Selectivity index (SI): IC50 for normal cells (PBMCs) / IC50 for cancer cells (KG-1a)
Description: (§1) MTT (3-(4,5-dimethylthiazol-2-yl)-2,5-diphenyltetrazolium bromide) assay was used to investigate the cytotoxicity of the test samples. KG-1a (1.5 × 10^4 cells/well), K562 (1.0 × 10^4 cells/well), PBMCs (1.0 × 10^5 cells/well), A549 (5.0 × 10^3 cells/well), MCF-7 (5.0 × 10^3 cells/well), and HeLa (5.0 × 10^3 cells/well) were seeded into a 96-well plate and incubated overnight at 37 °C with 5% CO2. […] After that, 5 mg/mL of MTT dye solution (Sigma-Aldrich, MA, USA) was added and incubated for 4 h. The produced formazan crystals were dissolved in 200 µL of DMSO (Sigma-Aldrich, MA, USA); then, the optical density (OD) was measured using an ELISA plate reader (Metertech, Taipei, Taiwan) at 578 nm with a reference wavelength of 630 nm. The percentage of surviving cells was calculated from the absorbance values of the test and control wells using the following Equation. 1 [drawing 1]
(§2) where ODsample is a mean absorbance in test well and ODvehicle control is a mean absorbance in VC well. The average percentage of surviving cells at each concentration obtained from triplicate experiments was plotted as a dose-response curve. Inhibitory concentration values at 50% growth (IC50 value) were defined as the lowest concentration of the test sample that inhibited cell growth by 50% compared to the untreated control.
(§3) To calculate IC50 values, a dose-response curve was fitted using non-linear regression analysis, as described in the GraphPad Prism guidelines (https://www.graphpad.com/support/faq/how-to-determine-an-icsub50sub/). The IC50 value was obtained by determining the point at which the curve intersected 50% growth inhibition. Non-linear regression graphs of the dose-response curve for each compound are provided in the supplementary data file (Figs. S1–S8).
where IC50 N is IC50 for normal cells and IC50 C is IC50 for cancer cells which were treated with the same compounds in both cells.

[2] = test system: PBMCs; assay: MTT cytotoxicity assay in PBMCs; format: cell-based, human; conditions: Homo sapiens, PBMC
Description: PBMCs were isolated from blood samples using the Ficoll-Hypaque technique. Initially, 10–20 mL of blood was collected in a heparin tube at a ratio of 1:500 from a minimum of three healthy volunteers. Subsequently, the blood samples were diluted with Phosphate buffer saline (PBS), pH 7.4, at a ratio of 1:1 to reduce viscosity. Histopaque-1077 (Sigma-Aldrich, MA, USA) was then underlaid the diluted sample and centrifuged at 400×g for 30 min. The resulting PBMCs were collected, washed with PBS, pH 7.4, and prepared for further experiments.
as §1, §2, §3

[3] = test system: RAW264.7 cells; assay: Cytotoxicity (IC20, cell viability) in RAW264.7 cells; format: cell-based; conditions: Mus musculus, RAW264.7; incubation for 48 h; read-out: IC20 RAW264.7 (inhibitory concentration at 20% growth)
Description: MTT (3-(4,5-dimethylthiazol-2-yl)-2,5-diphenyltetrazolium bromide) assay was used to investigate the cytotoxicity of the test samples. […] After that, 5 mg/mL of MTT dye solution (Sigma-Aldrich, MA, USA) was added and incubated for 4 h. The produced formazan crystals were dissolved in 200 μL of DMSO (Sigma-Aldrich, MA, USA); then, the optical density (OD) was measured using an ELISA plate reader ([…], Taiwan) at 578 nm with a reference wavelength of 630 nm. The percentage of surviving cells was calculated from the absorbance values of the test and control wells using the following Equation. 1 [drawing 1] […] Afterward, supernatants were collected, and the levels of TNF-α and NO were measured using the Mouse TNF alpha Uncoated ELISA Kit (InvitrogenTM, ThermoFisher Scientific, MA, USA) and the Total Nitric Oxide Assay Kit (InvitrogenTM, ThermoFisher Scientific, MA, USA), respectively, according to the manufacturer's instructions.

[4] = test system: KG-1a cells; assay: Trypan blue exclusion test, cell numbers of KG-1a cells; format: cell-based, human; conditions: IC20 concentrations, 48 h
Description: (§4) This test was used to confirm the cytotoxicity of the test samples. The cancer cells after exposure to crude ethanolic extracts and active compounds for 48 h were harvested and washed with ice-cold PBS, pH 7.4 for 3 times. Then, the cells were resuspended with PBS, pH 7.4. The cell suspensions were diluted with PBS, pH 7.4 at the appropriate dilution before being mixed with 0.2% trypan blue solution at 1:2 dilution for cell count on a hemocytometer. From this test, the viable cells and the dead cells could also be obviously detected.
as §4, with “crude ethanolic extracts and active compounds. KG-1a” for “the test samples. The cancer”

[5] = Homo sapiens, KG-1a, Table S7, KG-1a, first replicate, read-out: IC50 value R1
[6] = Homo sapiens, KG-1a, Table S7, KG-1a, second replicate, read-out: IC50 value R2
[7] = Homo sapiens, KG-1a, Table S7, KG-1a, third replicate, read-out: IC50 value R3
[8] = Table S8, PBMCs, first replicate, read-out: IC50 value R1
[9] = Table S8, PBMCs, second replicate, read-out: IC50 value R2
[10] = Table S8, PBMCs, third replicate, read-out: IC50 value R3

## COc1cccc2c1C(=O)c1c(O)c3c(c(O)c1C2=O)C[C@@](O)(C(=O)CO)C[C@@H]3O[C@H]1C[C@H](N)[C@H](O)[C@H](C)O1 [Doxorubicin, doxorubicin, reference compound]
[1]; Homo sapiens, KG-1a, 48 h, drugs, MTT, 48 h, read-out: IC50 KG-1a
  IC50: 0.652 ± 0.142 µg/mL (≈ 1.2 µM)
[1]; [5]
  IC50: 0.807 µg/mL (≈ 1.48 µM)
[1]; [6]
  IC50: 0.622 µg/mL (≈ 1.14 µM)
[1]; [7]
  IC50: 0.528 µg/mL (≈ 0.971 µM)
[1]; 48 h
  Selectivity index (SI): > 1.53
[1]; 48 h, listed as doxorubicin
  Selectivity index (SI): greater than 1
[2]; [8]
  IC50: > 1 µg/mL
[2]; Table S8, PBMCs, mean of R1-R3, read-out: IC50 value Mean
  IC50: > 1 µg/mL
[2]; [9]
  IC50: > 1 µg/mL
[2]; [10]
  IC50: > 1 µg/mL
[2]; drugs, MTT, 48 h, read-out: IC50 PBMCs
  IC50: > 1 µg/mL

## O=C(/C=C/c1ccc(O)cc1)CC(=O)/C=C/c1ccc(O)cc1 [Bisdemethoxycurcumin, bisdemethoxycurcumin]
[1]; Homo sapiens, KG-1a, 48 h, active compounds and drugs, MTT, 48 h, read-out: IC50 KG-1a
  IC50: 17.9 ± 0.99 µg/mL (≈ 58.1 µM)
[1]; Homo sapiens, KG-1a, 48 h, incubation for 48 h, read-out: IC20 KG-1a (inhibitory concentration at 20% growth)
  IC20: 7.97 ± 2.07 µg/mL (≈ 25.8 µM)
[1]; [5]
  IC50: 17.1 µg/mL (≈ 55.6 µM)
[1]; [6]
  IC50: 17.6 µg/mL (≈ 57 µM)
[1]; [7]
  IC50: 19 µg/mL (≈ 61.7 µM)
[1]; 48 h
  Selectivity index (SI): 0.65
[2]; [8]
  IC50: 12.6 µg/mL (≈ 40.7 µM)
[2]; [9]
  IC50: 12.2 µg/mL (≈ 39.4 µM)
[2]; [10]
  IC50: 10.2 µg/mL (≈ 33.1 µM)
[2]; active compounds and drugs, MTT, 48 h, read-out: IC50 PBMCs
  IC50: 11.6 ± 1.25 µg/mL (≈ 37.8 µM)
[2]; incubation for 48 h, read-out: IC20 PBMCs (inhibitory concentration at 20% growth)
  IC20: 6.9 ± 1.59 µg/mL (≈ 22.4 µM)
[3]
  IC20: 2.71 ± 0.62 µg/mL (≈ 8.79 µM)
[4]
  decrease of total cell number compared to VC: 47.21 ± 7.98%
  normalized viable cell counts: 962.81 ± 19.30 × 10^3 cells per 1 million total cells

## O=P1(N(CCCl)CCCl)NCCCO1 (centres unmarked) [Cyclophosphamide, cyclophosphamide, reference compound]
[1]; Homo sapiens, KG-1a, 48 h, read-out: IC50 KG-1a
  IC50: > 400 µg/mL
[1]; Homo sapiens, KG-1a, read-out: IC50 value Mean
  IC50: > 400 µg/mL
[1]; Homo sapiens, KG-1a, read-out: IC50 value R1
  IC50: > 400 µg/mL
[1]; Homo sapiens, KG-1a, read-out: IC50 value R2
  IC50: > 400 µg/mL
[1]; Homo sapiens, KG-1a, read-out: IC50 value R3
  IC50: > 400 µg/mL
[2]; 48 h, read-out: IC50 PBMCs
  IC50: > 400 µg/mL
[2]; read-out: IC50 value Mean
  IC50: > 400 µg/mL
[2]; read-out: IC50 value R1
  IC50: > 400 µg/mL
[2]; read-out: IC50 value R2
  IC50: > 400 µg/mL
[2]; read-out: IC50 value R3
  IC50: > 400 µg/mL
